Data on 1 substance can be found in patent publication US20050013875A1, “Immunopotentiators in thermotherapy for cancer” (priority 2001, published 2005).

For one assay, the system named is MFH cells. Kind of assay: Tumor regression in MFH cancer-carried F344 rats under MCL hyperthermia (tumor tissue volume). Type of assay: in vivo, rat. As to conditions: (GGA+AMF) Group: hyperthermia using MCL and GGA in combination, magnetic field irradiation three times, among 8 individuals. As for the experimental part:
(§1) As experimental individuals, F344 rats (female, 7 to 8-weeks old) were used. MFH cells 1×10^7 cultured on Petri dish for cell-cultivation were dispersed in about 50 μl of a physiologically buffered saline, and then, the cells suspension was transplanted subcutaneously to a right leg of an experimental individual by using a scalp vein needle (25G×5/8″) (Terumo Corporation) to make a cancer-carried experimental individual. Nembutal (available from Dainippon Pharmaceutical Co., Ltd.) was used for anesthesia, and that diluted to five times (50 mg/kg body weight) was administered to abdominal cavity.
A slurry of the magnetite (particle diameter 10 nm; available from Toda Kogyo Corporation) was sufficiently washed with a distilled water to remove unnecessary ion components, subjected to ultrasonic wave treatment, to obtain colloidal magnetite. […]
Under anesthesia of experimental individuals, a longer diameter and a shorter diameter of the tumor tissue were measured by using calipers and calculated out from the following formula. […]

The subject of assay [1] is HSP70. Kind of assay: In vitro HSP70 expression in heated MFH cells (immunoassay kit, Western Blot). Type of assay: cell-based. The conditions noted are these: GGA 10^-5 M or 10^-4 M, 45° C. for 15 minutes, measured 6 hours after heating. As for the experimental part: Cultivation of MFH cells was carried out by using a 100 mm Petri dish for culturing cells into which 10 ml of a medium had been charged, at 37° C. for 24 hours in an incubator into which 5% of carbon dioxide was added. As the medium, a medium comprising Dulbecco's modified Eagle's Medium that contains 10% fetal bovine serum and, as antibiotics, penicillin G potassium (100 U/ml) and streptomycin sulfate ([…]) was used.
After 6 hours from completion of the heating, a culture broth was removed from the Petri dish for culturing, the cells were washed twice with a physiological saline, a liquid to dissolve the cells attached to a HSP70 immunoassay kit was added to the cells with a predetermined amount to extract HSP70 from the cells. This was quantitated by the immunoassay kit. Also, the cells extract was subjected to electrophoresis, and an amount of HSP70 was qualitatively examined by Western Blot.
A general note: A western blot detects proteins with antibodies after separation by electrophoresis.

Assay [2] deals with HSP70. Nature of the assay: HSP70 immunostain of tumor tissue after GGA administration. Type of assay: in vivo. The conditions noted are these: F344 rat MFH tumor, GGA locally injected 12 hours after MCL, tumor cut out 2 hours after GGA, FIG. 1. The protocol: as §1
Under anesthesia of a rat, MCL with a concentration of 7.5 mg/ml and 3.3 mg of net weight magnetite was administered to the tumor tissue of the rat 10 days after transplantation of the MFH cells over 30 minutes by using a microsyringe pump (SP100i syringe pump, manufactured by WPI Co.), and thereafter, the rat was allowed to stand for 30 minutes. Magnetic field irradiation was carried out after 24 hours from injection of the MCL.

For geranylgeranyl acetone [GGA], the “individuals whose tumors were completely regressed and cured” value with MFH cells worked out at 8 individuals. Moreover, in the assay on HSP70 [1], the “expressed amount of the HSP70 after applying thermal stress” value is reported as “increased depending on an amount of the GGA added”. For the same substance, the “induction of HSP70 in tumor tissue (HSP70 stain)” value with HSP70 [2] is “induction of HSP70 was confirmed”.
